We go through 1 compound from ChEMBL document CHEMBL4130640, “Optimizing a Weakly Binding Fragment into a Potent RORγt Inverse Agonist with Efficacy in an in Vivo Inflammation Model” (J Med Chem, 2018).

One series is described as follows: physchem. The conditions noted are these: aqueous solution, pH 6.8.
The conditions of series [1]: pampa.

Converted amounts (≈) assume the structure as drawn.

A word on the thermodynamic solubility: it is solubility found after equilibrating the solid with the medium.

`C[C@H](Oc1ncc(NC(=O)Cc2ccncc2)cc1Cl)c1ccccc1` came in with a solubility (thermodynamic) in “physchem” of 28 µM (≈ 10.3 µg/mL). For the same compound, in series [1], the “log(permeability)” value was -3.7.
